Assay results from patent US9149475B2, “Protein kinase C inhibitors and uses thereof” (Rigel Pharmaceuticals, Inc., priority 2009, dated 2015).

test system: Human primary T cells; assay: IL-2 ELISA, human primary T cell, anti-CD3+CD28+ (whole cell assay); type: cell-based; settings: Homo sapiens, T-cell, 24 h, human primary T cells stimulated with anti-CD3 + anti-CD28, 24 hours
Outline: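 PBMC-derived T cells, pre-expanded on αCD3/αCD28 with IL-2 and then washed free of IL-2, were preincubated with compound for 1 hr at 37° C (100,000 cells/well). They were then stimulated on 1 μg/ml αCD3 plus 5 μg/ml αCD28 for 24 h, and supernatant IL-2 was measured by ELISA. The counter-assay used 0.5 ng/ml PMA plus 0.1 μM ionomycin instead.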

SMILES | IC50 [nM]
COc1cc(NC(C)=O)cc(Nc2ncc(F)c(NC3CC(C)(C)N(C)C(C)(C)C3)n2)c1 [Compound I-110, N2-(3-Acetylamino-5-methoxyphenyl)-5-fluoro-N4-(1,2,2,6,6-pentamethylpiperidin-4-yl)-2,4-pyrimidinediamine] | 500 to 1000
Cc1ccc(C)n1-c1cc(Nc2ncc(F)c(NC3CC(C)(C)NC(C)(C)C3)n2)ccc1OC(F)F [Compound I-5, N2-(4-(difluoromethoxy)-3-(2,5-dimethyl-1H-pyrrol-1-yl)phenyl)-5-fluoro-N4-(2,2,6,6-tetramethylpiperidin-4-yl)pyrimidine-2,4-diamine] | 500 to 1000
CN1C(C)(C)CC(Nc2nc(Nc3ccc(Oc4ccncc4)c(C(F)(F)F)c3)ncc2F)CC1(C)C [Compound I-62, 5-fluoro-N2-(3-(trifluoromethyl)-4-(pyridin-4-yloxy)phenyl)-N4-(1,2,2,6,6-pentamethylpiperidin-4-yl)pyrimidine-2,4-diamine] | > 1000
CC1(C)CC(Nc2nc(Nc3cc(OC(F)F)cc(C(F)(F)F)c3)ncc2F)CC(C)(C)N1 [Compound I-106, N2-(3-(difluoromethoxy)-5-(trifluoromethyl)phenyl)-5-fluoro-N4-(2,2,6,6-tetramethylpiperidin-4-yl)pyrimidine-2,4-diamine] | 500 to 1000
CC(C)Oc1ncc(Nc2ncc(C#N)c(NC3CC(C)(C)NC(C)(C)C3)n2)cc1-c1nnnn1C [Compound I-130, 2-(6-isopropoxy-5-(1-methyl-1H-tetrazol-5-yl)pyridin-3-ylamino)-4-(2,2,6,6-tetramethylpiperidin-4-ylamino)pyrimidine-5-carbonitrile] | > 1000
CN1C(C)(C)CC(Nc2nc(Nc3ccc(OCCN4CCNC4=O)c(OC(F)F)c3)ncc2F)CC1(C)C [Compound I-51, 1-(2-(4-(4-(1,2,2,6,6-pentamethylpiperidin-4-ylamino)-5-fluoropyrimidin-2-ylamino)-2-(difluoromethoxy)phenoxy)ethyl)imidazolidin-2-one] | 500 to 1000
CCOc1ncc(Nc2ncc(F)c(NC3CC(C)(C)N(C)C(C)(C)C3)n2)cc1OC(F)F [Compound I-117, N2-(5-(difluoromethoxy)-6-ethoxypyridin-3-yl)-5-fluoro-N4-(1,2,2,6,6-pentamethylpiperidin-4-yl)pyrimidine-2,4-diamine] | 250 to 500
CN1C(C)(C)CC(Nc2nc(Nc3ccc(OCCCN4CCOCC4)c(OC(F)F)c3)ncc2F)CC1(C)C [Compound I-48, N2-(4-(3-morpholinopropoxy)-3-(difluoromethoxy)phenyl)-5-fluoro-N4-(1,2,2,6,6-pentamethylpiperidin-4-yl)pyrimidine-2,4-diamine] | < 250

Results, then the compound that gave them:

IC50 [nM] | SMILES
> 1000 | CN1C(C)(C)CC(Nc2nc(Nc3ccc4c(c3)OCC(CN3CCOCC3)O4)ncc2F)CC1(C)C (stereo not drawn) [II-6, 5-fluoro-N2-(2,3-dihydro-2-(morpholinomethyl)benzo[b][1,4]dioxin-6-yl)-N4-(1,2,2,6,6-pentamethylpiperidin-4-yl)pyrimidine-2,4-diamine]
500 to 1000 | CN1C(C)(C)CC(Nc2nc(Nc3cccc(-c4nnnn4CCN4CCOCC4)c3)ncc2F)CC1(C)C [III-76, 5-fluoro-N2-(3-(1-(2-morpholinoethyl)-1H-tetrazol-5-yl)phenyl)-N4-(1,2,2,6,6-pentamethylpiperidin-4-yl)pyrimidine-2,4-diamine]
250 to 500 | COCCn1nnnc1-c1cc(Nc2ncc(F)c(NC3CC(C)(C)N(C)C(C)(C)C3)n2)ccc1F [III-128, 5-fluoro-N2-(4-fluoro-3-(1-(2-methoxyethyl)-1H-tetrazol-5-yl)phenyl)-N4-(1,2,2,6,6-pentamethylpiperidin-4-yl)pyrimidine-2,4-diamine]
> 1000 | CC1(C)CC(Nc2nc(Nc3cc(F)c(OC(C)(C)CCN4CCCC4)c(F)c3)ncc2F)CC(C)(C)N1 [III-48, N2-(3,5-difluoro-4-(2-methyl-4-(pyrrolidin-1-yl)butan-2-yloxy)phenyl)-5-fluoro-N4-(2,2,6,6-tetramethylpiperidin-4-yl)pyrimidine-2,4-diamine]
500 to 1000 | CN1C(C)(C)CC(Nc2nc(Nc3ccc(OC4CCOCC4)c(F)c3)ncc2F)CC1(C)C [III-24, 5-fluoro-N2-(3-fluoro-4-(tetrahydro-2H-pyran-4-yloxy)phenyl)-N4-(1,2,2,6,6-pentamethylpiperidin-4-yl)pyrimidine-2,4-diamine]
< 250 | CN1C(C)(C)CC(Nc2nc(Nc3ccc(Cl)c(-c4nnnn4C)c3)ncc2F)CC1(C)C [III-131, N2-(4-chloro-3-(1-methyl-1H-tetrazol-5-yl)phenyl)-5-fluoro-N4-(1,2,2,6,6-pentamethylpiperidin-4-yl)pyrimidine-2,4-diamine]
> 1000 | CN1C(C)(C)CC(Nc2nc(Nc3cc(F)c(OC(C)(C)CCN4CCCC4)c(F)c3)ncc2F)CC1(C)C [III-49, N2-(3,5-difluoro-4-(2-methyl-4-(pyrrolidin-1-yl)butan-2-yloxy)phenyl)-5-fluoro-N4-(1,2,2,6,6-pentamethylpiperidin-4-yl)pyrimidine-2,4-diamine]
250 to 500 | CN1C(C)(C)CC(Nc2nc(Nc3ccc(OC4CCN(S(C)(=O)=O)CC4)c(OC(F)F)c3)ncc2F)CC1(C)C [III-20, N2-(3-(difluoromethoxy)-4-(1-(methylsulfonyl)piperidin-4-yloxy)phenyl)-5-fluoro-N4-(1,2,2,6,6-pentamethylpiperidin-4-yl)pyrimidine-2,4-diamine]
> 1000 | CC(C)Oc1ccc(Nc2ncc(F)c(NC3CC(C)(C)NC(C)(C)C3)n2)cc1N(C)C(C)C [III-65, 5-fluoro-N2-(4-isopropoxy-3-(isopropyl(methyl)amino)phenyl)-N4-(2,2,6,6-tetramethylpiperidin-4-yl)pyrimidine-2,4-diamine]
< 250 | CN1C(C)(C)CC(Nc2nc(Nc3cc(C#N)cc(-c4nnnn4C)c3)ncc2F)CC1(C)C [III-144, 3-(5-fluoro-4-(1,2,2,6,6-pentamethylpiperidin-4-ylamino)pyrimidin-2-ylamino)-5-(1-methyl-1H-tetrazol-5-yl)benzonitrile]
> 1000 | COCCn1nnnc1-c1cc(Nc2ncc(F)c(NC3CC(C)(C)NC(C)(C)C3)n2)ccc1F [III-129, 5-fluoro-N2-(4-fluoro-3-(1-(2-methoxyethyl)-1H-tetrazol-5-yl)phenyl)-N4-(2,2,6,6-tetramethylpiperidin-4-yl)pyrimidine-2,4-diamine]
250 to 500 | CC1CC(Nc2nc(Nc3ccc(F)c(-n4cnnn4)c3)ncc2F)CC(C)N1C1CC1 (stereo not drawn) [III-11, N^4-(1-cyclopropyl-2,6-dimethylpiperidin-4-yl)-5-fluoro-N^2-(4-fluoro-3-(1H-tetrazol-1-yl)phenyl)pyrimidine-2,4-diamine]
> 1000 | CN1C(C)(C)CC(Nc2nc(Nc3ccc(OC4CCN(S(C)(=O)=O)CC4)c(F)c3)ncc2F)CC1(C)C [III-14, 5-fluoro-N2-(3-fluoro-4-(1-(methylsulfonyl)piperidin-4-yloxy)phenyl)-N4-(1,2,2,6,6-pentamethylpiperidin-4-yl)pyrimidine-2,4-diamine]
> 1000 | CC1(C)CC(Nc2nc(Nc3cccc(-c4nn[nH]n4)c3)ncc2F)CC(C)(C)N1 [III-69, N2-(3-(2H-tetrazol-5-yl)phenyl)-5-fluoro-N4-(2,2,6,6-tetramethylpiperidin-4-yl)pyrimidine-2,4-diamine]
< 250 | CN1C(C)(C)CC(Nc2nc(Nc3ccc(OC4CCOCC4)c(OC(F)F)c3)ncc2F)CC1(C)C [III-22, N2-(3-(difluoromethoxy)-4-(tetrahydro-2H-pyran-4-yloxy)phenyl)-5-fluoro-N4-(1,2,2,6,6-pentamethylpiperidin-4-yl)pyrimidine-2,4-diamine]
500 to 1000 | CN1C(C)(C)CC(Nc2nc(Nc3cc(F)c(OC4CCN(CCOCc5ccccc5)CC4)c(F)c3)ncc2F)CC1(C)C [III-56, N2-(4-(1-(2-(benzyloxy)ethyl)piperidin-4-yloxy)-3,5-difluorophenyl)-5-fluoro-N4-(1,2,2,6,6-pentamethylpiperidin-4-yl)pyrimidine-2,4-diamine]
< 250 | [2H]C([2H])([2H])N1C(C)(C)CC(Nc2nc(Nc3ccc(C)c(-n4cnnn4)c3)ncc2F)CC1(C)C [III-113, 5-fluoro-N2-(4-methyl-3-(1H-tetrazol-1-yl)phenyl)-N4-(1-trideuteromethyl-2,2,6,6-tetramethylpiperidin-4-yl)pyrimidine-2,4-diamine]
> 1000 | CN1C(C)(C)CC(Nc2nc(Nc3ccc4c(c3)OCC(CN3CCCCC3)O4)ncc2F)CC1(C)C (stereo not drawn) [II-5, 5-fluoro-N2-(2,3-dihydro-2-((piperidin-1-yl)methyl)benzo[b][1,4]dioxin-6-yl)-N4-(1,2,2,6,6-pentamethylpiperidin-4-yl)pyrimidine-2,4-diamine]
> 1000 | Cn1nnnc1-c1cc(Nc2ncc(F)c(NC3CC(C)(C)NC(C)(C)C3)n2)ccc1OC1CCOCC1 [III-124, 5-fluoro-N2-(3-(1-methyl-1H-tetrazol-5-yl)-4-(tetrahydro-2H-pyran-4-yloxy)phenyl)-N4-(2,2,6,6-tetramethylpiperidin-4-yl)pyrimidine-2,4-diamine]

same assay, conditions: human primary T cells stimulated with anti-CD3 + anti-CD28, 24 hours

IC50 [nM] | SMILES
250 to 500 | CC1(C)CC(Nc2nc(Nc3ccc(F)c(-n4cnnn4)c3)ncc2C(N)=O)CC(C)(C)N1 [Compound I-125, 5-aminocarbonyl-N2-[4-fluoro-3-(1H-tetrazol-1-yl)]phenyl-N4-(2,2,6,6-tetramethylpiperidin-4-yl)-2,4-pyrimidinediamine]
> 1000 | CC1(C)CC(Nc2nc(Nc3cccc(-c4nnn[nH]4)c3)ncc2C#N)CC(C)(C)N1 [Compound I-85, 5-Cyano-N4-(2,2,6,6-tetramethylpiperidin-4-yl)-N2-[3-(tetrazol-5-yl)]phenyl-2,4-pyrimidinediamine]
250 to 500 | CN1C(C)(C)CC(Nc2nc(Nc3cccc(-n4nnnc4SCC(F)(F)F)c3)ncc2C(N)=O)CC1(C)C [Compound I-71, 5-aminocarbonyl-N4-(1,2,2,6,6-pentamethylpiperidin-4-yl)-N2-{3-[5-(2,2,2-trifluoroethyl)thio]-1H-tetrazol-1-yl}phenyl-2,4-pyrimidinediamine]
